Measured values taken from patent publication US20230235277A1, “3D Tissue Culture Materials and Processes for Producing Same” (INSPHERO AG, priority 2014, published 2023).
“Also recorded” adds a separate entry of the source.

Assays:
human liver microtissues [1] = test: Long-term toxicity testing with human liver microtissues, 14 days treatment with 3 re-dosing; assay type: cell-based; conditions: 336 h, read-out: IC50 value of toxicity (cell death), dose-response
[2] = tested on: 2D cultures of human hepatocytes; test: Toxicity in 2D cultures of human hepatocytes; assay type: cell-based; conditions: Hepatocyte, read-out: calculated IC50 value in 2D cultures of human hepatocytes
human liver microtissues [3] = test: Inflammation-mediated toxicity testing with human liver microtissues in presence and absence of LPS; assay type: cell-based
IL-6 secretion = test: Quantification of IL-6 secretion of liver microtissues by ELISA after LPS induction; assay type: cell-based, human; conditions: hepatosphere induced for 48 h with 10 µg/ml LPS

Q: How did the IC50 (human liver microtissues [1]) turn out when `CC(=O)Nc1ccc(O)cc1` [acetaminophen] was run?
A: 754 µM

Q: `O=C(O)Cc1ccccc1Nc1c(Cl)cccc1Cl` [diclofenac] was tested. Which IC50 (human liver microtissues [1]) did it give?
A: 179 µM

Q: What about the IC50 [2] of the same compound?
A: 331 µM

Q: Which results are given for `N[C@@H]1[C@H]2CN(c3nc4c(cc3F)c(=O)c(C(=O)O)cn4-c3ccc(F)cc3F)C[C@@H]12` [trovafloxacin]?
A: IC50 (human liver microtissues [3]; absence of LPS (−LPS), read-out: IC50 (hepatotoxic threshold) of induced toxicity without LPS): 220 µM; IC50 (human liver microtissues [3]; presence of LPS (+LPS), read-out: IC50 (hepatotoxic threshold) of induced toxicity in the presence of LPS): 71 µM

Q: Which “increase in IL-6 secretion” value (IL-6 secretion) does the source give for lipopolysaccharide [LPS] here?
A: tenfold increase; also recorded: elevated levels of IL-6 secretion
